Assays:
Type in all cases: in vivo
wheat = wheat field test, crop selectivity, greenhouse spray at 4 leaf stage; settings: 4 weeks after treatment
Procedure, shortened: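 Read-out: fresh weight control rate, scored 4 weeks after a post-emergence spray. Treatment at 4 leaf stage (2-3 weeks after sowing); compound dissolved in acetone, with methyl oleate emulsion, diluted with water.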

chickweed = test: wheat field resistant broadleaf weed control, greenhouse spray at 4 leaf stage; parameters: key: Level 10: completely dead; Level 9: above 95% growth control rate; Level 8: above 90% growth control rate; Level 7: above 80% growth control rate; Level 6: above 70% growth control rate; Level 5: above 60% growth control rate; Level 4: above 50% growth control rate; Level 3: above 20% growth control rate; Level 2: 5%-20% growth control rate; Level 1: below 5% growth control rate; settings: 250 g/ha of the active substance; 4 weeks after treatment; ALS inhibitor resistant
Procedure, shortened: (§1)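 Pot-grown weeds sown under 0.5-2 cm soil were sprayed at the 4 leaf stage, 2-3 weeks after sowing, with compound in acetone plus methyl oleate emulsion diluted in water. Plants were kept 4 weeks in the greenhouse. Activity is the growth control rate on a fresh weight basis.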

corn gromwell = test: as above; parameters: key: Level 10: completely dead; Level 9: above 95% growth control rate; Level 8: above 90% growth control rate; Level 7: above 80% growth control rate; Level 6: above 70% growth control rate; Level 5: above 60% growth control rate; Level 4: above 50% growth control rate; Level 3: above 20% growth control rate; Level 2: 5%-20% growth control rate; Level 1: below 5% growth control rate; settings: 250 g/ha of the active substance; 4 weeks after treatment; ALS inhibitor resistant
Procedure, shortened: as §1

flixweed = test: as above; parameters: key: Level 10: completely dead; Level 9: above 95% growth control rate; Level 8: above 90% growth control rate; Level 7: above 80% growth control rate; Level 6: above 70% growth control rate; Level 5: above 60% growth control rate; Level 4: above 50% growth control rate; Level 3: above 20% growth control rate; Level 2: 5%-20% growth control rate; Level 1: below 5% growth control rate; settings: 250 g/ha of the active substance; 4 weeks after treatment; ALS inhibitor resistant
Procedure, shortened: as §1

shepherd's purse = test: as above; parameters: key: Level 10: completely dead; Level 9: above 95% growth control rate; Level 8: above 90% growth control rate; Level 7: above 80% growth control rate; Level 6: above 70% growth control rate; Level 5: above 60% growth control rate; Level 4: above 50% growth control rate; Level 3: above 20% growth control rate; Level 2: 5%-20% growth control rate; Level 1: below 5% growth control rate; settings: 250 g/ha of the active substance; 4 weeks after treatment; ALS inhibitor resistant
Procedure, shortened: as §1

rice (japonica rice) = test: transplanted rice safety evaluation; settings: 125 g/ha ai; treated 5 days after transplantation; 21 days after treatment
Description: The activity level standard of harmful plant destruction (i.e. growth control rate) is as follows: In addition, the rice field soil that loaded into the 1/1,000,000 ha pot was leveled to keep water storage at 3-4 cm depth. The 3 leaf stage rice (japonica rice) was transplanted at 3 cm of transplanting depth the next day. The compound of the present invention was treated by the same way after 5 days of transplantation. The fertility condition of echinochloa, scirpus juncoides, bidens tripartite and sagittaria trifolia 14 days after the treatment of the compound of the invention and the fertility condition of rice 21 days after the treatment of the compound of the invention respectively with the naked eye.

alopecurus japonicas = test: wheat field resistant weed control, greenhouse spray at 4 leaf stage; parameters: key: Level 10: completely dead; Level 9: above 95% growth control rate; Level 8: above 90% growth control rate; Level 7: above 80% growth control rate; Level 6: above 70% growth control rate; Level 5: above 60% growth control rate; Level 4: above 50% growth control rate; Level 3: above 20% growth control rate; Level 2: 5%-20% growth control rate; Level 1: below 5% growth control rate; settings: sprayed at 4 leaf stage, 4 weeks after treatment, resistant to ALS and ACCase inhibitor herbicides
Procedure, shortened: as §1

[1] = 250 g/ha of the active substance
[2] = 2 g/mu, sprayed at 4 leaf stage
[3] = 4 g/mu, sprayed at 4 leaf stage
[4] = 8 g/mu, sprayed at 4 leaf stage
[5] = 16 g/mu, sprayed at 4 leaf stage
[6] = 32 g/mu, sprayed at 4 leaf stage

Row | SMILES | Wheat (activity level, crop damage) (wheat; [1]) | chickweed weed controlling effect (activity level) (chickweed) | corn gromwell weed controlling effect (activity level) (corn gromwell) | flixweed weed controlling effect (activity level) (flixweed) | shepherd's purse weed controlling effect (activity level) (shepherd's purse) | Rice (activity level, transplanted rice safety) (rice (japonica rice)) | Alopecurus japonicas weed controlling effect (activity level) (alopecurus japonicas; 1 g/mu) | Alopecurus japonicas weed controlling effect (activity level) (alopecurus japonicas; 2 g/mu) | Alopecurus japonicas weed controlling effect (activity level) (alopecurus japonicas; 4 g/mu) | Alopecurus japonicas weed controlling effect (activity level) (alopecurus japonicas; 8 g/mu) | Wheat (activity level, crop damage) (wheat; [2]) | Wheat (activity level, crop damage) (wheat; [3]) | Wheat (activity level, crop damage) (wheat; [4]) | Wheat (activity level, crop damage) (wheat; [5]) | Wheat (activity level, crop damage) (wheat; [6])
1 | CCOc1c(C(=O)Oc2c(C(=O)c3ccc(C(F)(F)F)c(N4CCCCC4=O)c3Cl)c(C)nn2C)cnn1C [Compound 037] | 0 | 10 | 10 | 10 | 10 | 2 (Level 2: 5%-20% growth control rate) |  |  |  |  |  |  |  |  | 
2 | Cc1nn(C)c(O)c1C(=O)c1ccc(C(F)(F)F)c(N2CCCCC2=O)c1Cl [Compound 035] |  |  |  |  |  | 0 | 0 | 2 (Level 2: 5%-20% growth control rate) | 6 (Level 6: above 70% growth control rate) | 6 (Level 6: above 70% growth control rate) | 0 | 0 | 0 | 0 | 0
3 | CCOc1c(C(=O)Oc2c(C(=O)c3ccc(C(F)(F)F)c(-n4cccn4)c3Cl)c(C)nn2C)cnn1C [Compound 071] | 0 | 10 | 10 | 10 | 10 | 0 |  |  |  |  |  |  |  |  | 
4 | CCOc1c(C(=O)Oc2c(C(=O)c3ccc(C(F)(F)F)c(-n4cc(C)cn4)c3Cl)c(C3CC3)nn2C)cnn1C [Compound 092] | 1 (Level 1: below 5% growth control rate) | 10 | 10 | 10 | 10 | 0 |  |  |  |  |  |  |  |  | 
5 | Cc1nn(C)cc1C(=O)Oc1c(C(=O)c2ccc(C(F)(F)F)c(N3CCCC3=O)c2Cl)c(C)nn1C [Compound 023] |  |  |  |  |  | 0 | 1 (Level 1: below 5% growth control rate) | 6 (Level 6: above 70% growth control rate) | 8 (Level 8: above 90% growth control rate) | 10 | 1 (Level 1: below 5% growth control rate) | 2 (Level 2: 5%-20% growth control rate) | 3 (Level 3: above 20% growth control rate) | 4 (Level 4: above 50% growth control rate) | 4 (Level 4: above 50% growth control rate)
6 | CCOc1c(C(=O)Oc2c(C(=O)c3ccc(C(F)(F)F)c(-n4cc(C)cn4)c3Cl)cnn2C)cnn1C [Compound 081] | 0 | 10 | 10 | 10 | 10 | 1 (Level 1: below 5% growth control rate) |  |  |  |  |  |  |  |  | 
7 | CCn1nc(C)c(C(=O)c2ccc(C(F)(F)F)c(-n3cccn3)c2Cl)c1OC(=O)c1cn(C)nc1C [Compound 129] | 1 (Level 1: below 5% growth control rate) | 10 | 10 | 10 | 10 | 2 (Level 2: 5%-20% growth control rate) |  |  |  |  |  |  |  |  | 

Source: US11076594B2, “Pyrazolone compound or salt thereof, preparation method therefor, herbicide composition and use thereof” (QINGDAO KINGAGROOT CHEMICAL COMPOUNDS CO., LTD., priority 2015, dated 2021)
